# Measured values as given in article PMC3464284, “Virtual Screening as a Strategy for the Identification of Xenobiotics Disrupting Corticosteroid Action” (PLoS ONE, 2012).
# Structures can show the parent of a compound that is named as a salt. Where two headings read alike, the source gives them in different places.
# How the values were obtained:
# Type in all cases: biochemical
# 11β-HSD2 [1] = target: T1, 11β-HSD2 (Homo sapiens, UniProt P80365); assay: radiolabeled cortisol to cortisone conversion, HEK-293 lysate; details: for 11β-HSD2 activity (% of control): 20 µM, […] cortisol, […] NAD+, […]°C, […] min
# T1 construct: gene HSD11B2; stably expressed in HEK-293 cells, cell lysate
# T1 sequence (P80365 1-405): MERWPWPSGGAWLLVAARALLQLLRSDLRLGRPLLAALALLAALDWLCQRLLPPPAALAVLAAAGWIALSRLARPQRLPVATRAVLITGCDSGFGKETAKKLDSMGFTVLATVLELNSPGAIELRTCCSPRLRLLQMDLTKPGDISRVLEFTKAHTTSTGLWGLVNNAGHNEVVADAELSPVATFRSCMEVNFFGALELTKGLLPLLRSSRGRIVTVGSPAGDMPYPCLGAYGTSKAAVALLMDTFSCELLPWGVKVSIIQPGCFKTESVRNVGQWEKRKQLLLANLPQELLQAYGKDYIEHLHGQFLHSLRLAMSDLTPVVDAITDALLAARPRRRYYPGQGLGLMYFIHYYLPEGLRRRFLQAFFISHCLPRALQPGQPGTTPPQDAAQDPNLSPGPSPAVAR
# 11β-HSD1 [2] = target: T2, 11β-HSD1 (Homo sapiens, UniProt P28845); assay: radiolabeled cortisone to cortisol conversion, HEK-293 lysate; details: for 11β-HSD1 activity (% of control): 20 µM, […] cortisone, […] NADPH, […]°C, […] min; for remaining activity at 20 µM: read-out: 11β-HSD1 activity (% of control)
# T2 construct: gene HSD11B1; stably expressed in HEK-293 cells, cell lysate
# Source text: radiolabeled cortisone to cortisol conversion, HEK-293 lysate on 11β-HSD1
# 11β-HSD1 [3] = target: T2, 11β-HSD1; assay: as above
# 11β-HSD2 [4] = target: T1, 11β-HSD2; assay: radiolabeled cortisol to cortisone conversion, HEK-293 lysate
# [5] = read-out: 11β-HSD2 activity (% of control)
# T2 sequence (P28845 whole entry): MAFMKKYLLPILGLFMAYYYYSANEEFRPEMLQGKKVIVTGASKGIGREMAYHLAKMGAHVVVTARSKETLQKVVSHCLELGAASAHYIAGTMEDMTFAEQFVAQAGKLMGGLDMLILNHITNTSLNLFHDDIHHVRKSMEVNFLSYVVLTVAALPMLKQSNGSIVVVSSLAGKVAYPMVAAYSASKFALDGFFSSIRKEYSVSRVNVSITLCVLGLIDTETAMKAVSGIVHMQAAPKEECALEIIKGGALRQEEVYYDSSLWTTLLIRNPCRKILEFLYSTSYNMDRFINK
compound,measurement,setting,value
CCO[Si](CCCS)(OCC)OCC [3-mercaptopropyl triethoxysilane],remaining activity at 20 µM,11β-HSD2 [1]; read-out: remaining activity at 20 μM,80 ± 7%
CC[C@H]1CN2CCc3cc(OC)c(OC)cc3[C@@H]2C[C@@H]1C[C@H]1NCCc2cc(O)c(OC)cc21 [(−) Cephaeline dihydrochloride],11β-HSD2 activity (% of control),11β-HSD2 [1],74±2
same,11β-HSD1 activity (% of control),11β-HSD1 [2],100±2
"CCO[Si](CCCSSSSCCC[Si](OCC)(OCC)OCC)(OCC)OCC [AB110873, bis[3-(triethoxysilyl)propyl] tetrasulfide]",11β-HSD1 activity (% of control),11β-HSD1 [2],79±3
C[C@]12CC[C@H](O)C[C@H]1CC[C@@H]1[C@@H]2CC[C@]2(C)[C@@H](C3=CC(=O)OC3)CC[C@]12O [Digitoxigenin],11β-HSD2 activity (% of control),11β-HSD2 [1],104±4
same,11β-HSD1 activity (% of control),11β-HSD1 [2],36±2
C[C@@H]1CC[C@@]2(OC1)O[C@H]1C[C@H]3[C@@H]4CC[C@H]5C[C@@H](O)CC[C@]5(C)[C@H]4CC(=O)[C@]3(C)[C@H]1[C@@H]2C [Hecogenin],remaining activity at 20 µM,11β-HSD2 [1]; [5],82 ± 2%
same,remaining activity at 20 µM,11β-HSD1 [2],49 ± 9%
CC(C)OC(=O)C(C)(C)Oc1ccc(C(=O)c2ccc(Cl)cc2)cc1 [fenofibrate],IC50,11β-HSD1 [3],3.8 ± 0.3 µM
same,remaining activity at 20 µM,11β-HSD2 [1]; [5],140 ± 40%
CC[C@@H](C(=O)[C@@H](C)[C@@H](O)[C@H](C)CCc1ccc(C)c(O)c1C(=O)O)[C@H]1O[C@](CC)([C@H]2CC[C@](O)(CC)[C@H](C)O2)C[C@@H]1C [lasalocid],IC50,11β-HSD2 [4],14 ± 3 µM
same,remaining activity at 20 µM,11β-HSD1 [2],84 ± 3%
